Earlier results, collected in patent publication US20110104281A1, “METHOD FOR TREATING PAIN USING A SUBSTITUTED 2-AMINOTETRALIN COMPOUND” (UCB PHARMA GMBH, priority 2006, published 2011).

Experiments:
[1] = target: 5-HT7 (Homo sapiens, UniProt P34969); settings: cited from earlier work
[2] = system: fibromyalgia patients; settings: preliminary clinical studies; cited from earlier work
[3] = target: α2B receptor (Homo sapiens, UniProt P18089); settings: cited from earlier work
[4] = target: D3 receptor (Homo sapiens, UniProt P35462); settings: cited from earlier work
[5] = target: D1 receptor (Homo sapiens, UniProt P21728); settings: cited from earlier work
[6] = target: 5-HT1A receptor (Homo sapiens, UniProt P08908); settings: cited from earlier work
[7] = target: α2C (Homo sapiens, UniProt P18825); settings: cited from earlier work
α2C, sequence (P18825 whole entry): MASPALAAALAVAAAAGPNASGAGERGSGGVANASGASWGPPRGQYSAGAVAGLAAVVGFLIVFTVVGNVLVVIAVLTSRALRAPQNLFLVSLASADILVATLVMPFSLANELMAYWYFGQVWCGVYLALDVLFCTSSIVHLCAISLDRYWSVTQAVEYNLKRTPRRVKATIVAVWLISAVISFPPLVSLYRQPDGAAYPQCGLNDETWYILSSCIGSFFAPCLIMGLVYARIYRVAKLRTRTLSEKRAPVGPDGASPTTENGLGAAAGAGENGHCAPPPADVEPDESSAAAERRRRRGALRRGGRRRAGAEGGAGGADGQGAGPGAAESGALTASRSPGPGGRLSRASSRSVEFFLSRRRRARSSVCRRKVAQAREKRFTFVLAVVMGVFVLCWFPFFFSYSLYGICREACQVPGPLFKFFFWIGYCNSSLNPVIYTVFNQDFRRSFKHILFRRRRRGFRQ

5-HT7, sequence (P34969 whole entry, species assumed): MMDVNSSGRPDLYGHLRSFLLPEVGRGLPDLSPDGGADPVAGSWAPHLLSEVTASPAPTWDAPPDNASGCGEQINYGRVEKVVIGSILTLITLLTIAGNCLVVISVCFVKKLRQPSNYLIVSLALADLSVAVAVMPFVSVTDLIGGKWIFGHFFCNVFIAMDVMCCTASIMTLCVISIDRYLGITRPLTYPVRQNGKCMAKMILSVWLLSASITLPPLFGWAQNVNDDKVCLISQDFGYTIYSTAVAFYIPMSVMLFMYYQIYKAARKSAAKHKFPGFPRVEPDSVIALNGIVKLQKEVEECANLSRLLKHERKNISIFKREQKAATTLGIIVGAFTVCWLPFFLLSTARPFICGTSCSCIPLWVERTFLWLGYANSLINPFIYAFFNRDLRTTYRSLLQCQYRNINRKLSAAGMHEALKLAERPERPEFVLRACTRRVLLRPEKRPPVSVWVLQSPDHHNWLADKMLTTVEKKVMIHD
α2B receptor, sequence (P18089 whole entry): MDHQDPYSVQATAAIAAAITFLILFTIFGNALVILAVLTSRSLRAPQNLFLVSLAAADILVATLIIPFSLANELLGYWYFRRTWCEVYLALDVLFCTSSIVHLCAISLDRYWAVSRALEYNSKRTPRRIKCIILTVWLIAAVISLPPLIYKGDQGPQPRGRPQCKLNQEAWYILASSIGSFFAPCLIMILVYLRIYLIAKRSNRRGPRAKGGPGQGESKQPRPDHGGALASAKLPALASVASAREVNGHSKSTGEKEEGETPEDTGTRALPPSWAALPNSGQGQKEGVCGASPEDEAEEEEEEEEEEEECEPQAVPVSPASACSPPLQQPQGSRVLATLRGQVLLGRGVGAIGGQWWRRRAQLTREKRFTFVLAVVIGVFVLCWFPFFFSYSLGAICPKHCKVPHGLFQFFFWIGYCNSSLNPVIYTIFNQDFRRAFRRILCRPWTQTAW
D1 receptor, sequence (P21728 whole entry): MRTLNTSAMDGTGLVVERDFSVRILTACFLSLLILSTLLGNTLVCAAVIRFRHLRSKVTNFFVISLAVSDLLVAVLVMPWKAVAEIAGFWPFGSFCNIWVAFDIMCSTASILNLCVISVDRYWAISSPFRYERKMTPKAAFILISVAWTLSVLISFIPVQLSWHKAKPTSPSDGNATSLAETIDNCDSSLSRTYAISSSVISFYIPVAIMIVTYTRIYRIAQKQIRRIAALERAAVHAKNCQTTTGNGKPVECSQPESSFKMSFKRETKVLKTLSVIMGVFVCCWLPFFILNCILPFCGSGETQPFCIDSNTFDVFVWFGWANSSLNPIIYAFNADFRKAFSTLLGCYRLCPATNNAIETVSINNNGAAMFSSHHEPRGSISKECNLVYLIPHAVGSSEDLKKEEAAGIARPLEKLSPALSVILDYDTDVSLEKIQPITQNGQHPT
5-HT1A receptor, sequence (P08908 whole entry): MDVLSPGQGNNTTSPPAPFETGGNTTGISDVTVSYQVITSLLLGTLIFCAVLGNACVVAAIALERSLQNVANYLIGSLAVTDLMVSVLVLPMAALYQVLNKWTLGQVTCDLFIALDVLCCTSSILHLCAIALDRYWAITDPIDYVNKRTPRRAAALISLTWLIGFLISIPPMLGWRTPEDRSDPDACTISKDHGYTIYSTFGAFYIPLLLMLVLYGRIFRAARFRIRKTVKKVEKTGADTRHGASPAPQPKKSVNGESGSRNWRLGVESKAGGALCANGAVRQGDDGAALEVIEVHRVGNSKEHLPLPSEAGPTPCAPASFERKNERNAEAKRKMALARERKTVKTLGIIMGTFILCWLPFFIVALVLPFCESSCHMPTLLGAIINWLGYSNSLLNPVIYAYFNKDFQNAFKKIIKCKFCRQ
D3 receptor, sequence (P35462 whole entry): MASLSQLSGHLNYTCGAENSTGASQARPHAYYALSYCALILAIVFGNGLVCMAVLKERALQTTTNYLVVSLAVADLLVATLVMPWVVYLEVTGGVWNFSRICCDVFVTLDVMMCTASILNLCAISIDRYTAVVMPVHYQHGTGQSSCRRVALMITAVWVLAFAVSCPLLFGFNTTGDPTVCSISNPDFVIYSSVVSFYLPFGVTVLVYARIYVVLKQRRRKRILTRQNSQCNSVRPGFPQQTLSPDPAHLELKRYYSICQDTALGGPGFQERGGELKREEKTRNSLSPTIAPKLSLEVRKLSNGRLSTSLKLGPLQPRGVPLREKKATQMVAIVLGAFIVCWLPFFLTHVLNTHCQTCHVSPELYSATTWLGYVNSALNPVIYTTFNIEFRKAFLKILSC

Compound	Affinity for 5-HT7 [1]	Pain in fibromyalgia patients [2]	Affinity / action at α2B receptor [3]	Affinity for D3 receptor [4]	Affinity for D1 receptor [5]	Affinity / action at 5-HT1A receptor [6]	Affinity for α2C [7]
CCCN(CCC)CCc1cccc2c1CC(=O)N2 [ropinirole]	only weak or no affinity	shown to reduce pain	only weak or no affinity	strongest affinity for D3	only weak or no affinity	only weak or no affinity	only weak or no affinity
CCCN[C@H]1CCc2nc(N)sc2C1 [Pramipexole]	only weak or no affinity	shown to reduce pain	only weak or no affinity	strongest affinity for D3	only weak or no affinity	only weak or no affinity	only weak or no affinity
